Laboratory results published in ChEMBL document CHEMBL1135773, “Purine and pyrimidine (P2) receptors as drug targets” (J Med Chem, 2002).

What was measured:
P2X purinoceptor 5 = target: T1, P2X purinoceptor 5 (Rattus norvegicus, UniProt P51578); experiment: Antagonist activity against recombinant rat P2X purinoceptor 5 (P2X5); format: functional
T1 sequence (P51578 whole entry): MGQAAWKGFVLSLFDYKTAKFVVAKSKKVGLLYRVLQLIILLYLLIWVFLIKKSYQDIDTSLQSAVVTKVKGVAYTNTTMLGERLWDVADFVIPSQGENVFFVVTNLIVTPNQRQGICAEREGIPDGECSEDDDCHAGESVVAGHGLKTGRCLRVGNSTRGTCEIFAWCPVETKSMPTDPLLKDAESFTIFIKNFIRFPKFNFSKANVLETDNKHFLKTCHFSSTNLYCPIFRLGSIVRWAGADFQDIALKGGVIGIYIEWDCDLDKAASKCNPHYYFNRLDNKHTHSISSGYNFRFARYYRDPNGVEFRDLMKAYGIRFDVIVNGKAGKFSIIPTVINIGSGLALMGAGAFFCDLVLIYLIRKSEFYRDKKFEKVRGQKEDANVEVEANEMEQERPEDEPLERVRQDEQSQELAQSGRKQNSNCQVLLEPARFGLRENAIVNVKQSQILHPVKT

P2Y purinoceptor 4 = P2Y purinoceptor 4 (Homo sapiens, UniProt P51582); experiment: The compound was evaluated for antagonist activity against phospholipase C coupled recombinant human P2Y purinoceptor 4 (P2Y4); format: functional
Chain of P2Y purinoceptor 4 (P51582 whole entry): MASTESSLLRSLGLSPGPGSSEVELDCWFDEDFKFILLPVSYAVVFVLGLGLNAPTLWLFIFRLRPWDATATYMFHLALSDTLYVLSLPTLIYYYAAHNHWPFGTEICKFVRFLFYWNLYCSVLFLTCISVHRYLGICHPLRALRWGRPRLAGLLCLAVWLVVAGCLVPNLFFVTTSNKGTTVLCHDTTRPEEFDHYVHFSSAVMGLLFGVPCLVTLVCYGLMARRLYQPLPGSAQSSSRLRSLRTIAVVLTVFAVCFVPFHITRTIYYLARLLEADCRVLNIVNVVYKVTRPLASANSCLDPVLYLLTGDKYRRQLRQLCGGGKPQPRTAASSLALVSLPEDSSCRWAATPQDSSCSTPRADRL

P2Y purinoceptor 12 = P2Y purinoceptor 12 (Rattus norvegicus, UniProt Q9EPX4); experiment: Antagonist activity against phospholipase C coupled rat P2Y purinoceptor 12 (P2Y12); format: functional
Chain of P2Y purinoceptor 12 (Q9EPX4 whole entry): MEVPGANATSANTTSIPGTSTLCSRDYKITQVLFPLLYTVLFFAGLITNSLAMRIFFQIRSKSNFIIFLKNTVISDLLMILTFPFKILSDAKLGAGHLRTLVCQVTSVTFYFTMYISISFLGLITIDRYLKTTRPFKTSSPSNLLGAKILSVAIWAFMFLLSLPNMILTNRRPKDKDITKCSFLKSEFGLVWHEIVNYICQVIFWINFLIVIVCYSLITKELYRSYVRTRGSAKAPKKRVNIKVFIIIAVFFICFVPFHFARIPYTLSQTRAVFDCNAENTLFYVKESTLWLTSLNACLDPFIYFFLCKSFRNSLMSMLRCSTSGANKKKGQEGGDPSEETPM

P2Y purinoceptor 1 = P2Y purinoceptor 1 (Meleagris gallopavo, UniProt P49652); experiment: Evaluated for antagonist activity against phospholipase C coupled P2Y purinoceptor 1 (P2Y1) of turkey erythrocytes; format: functional
Chain of P2Y purinoceptor 1 (P49652 whole entry): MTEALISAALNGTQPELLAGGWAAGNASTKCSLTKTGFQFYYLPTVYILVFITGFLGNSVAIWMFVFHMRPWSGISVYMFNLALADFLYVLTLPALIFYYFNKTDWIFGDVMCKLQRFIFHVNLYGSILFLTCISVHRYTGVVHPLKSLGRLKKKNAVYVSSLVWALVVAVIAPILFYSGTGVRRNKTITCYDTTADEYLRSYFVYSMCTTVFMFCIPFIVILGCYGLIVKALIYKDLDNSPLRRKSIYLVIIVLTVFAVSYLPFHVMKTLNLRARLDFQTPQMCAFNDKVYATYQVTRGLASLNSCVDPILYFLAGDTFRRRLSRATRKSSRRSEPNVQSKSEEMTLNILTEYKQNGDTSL

P2X purinoceptor 6 = P2X purinoceptor 6 (Rattus norvegicus, UniProt P51579); experiment: Antagonist activity against recombinant rat P2X purinoceptor 6 (P2X6 ); format: functional
Chain of P2X purinoceptor 6 (P51579 whole entry): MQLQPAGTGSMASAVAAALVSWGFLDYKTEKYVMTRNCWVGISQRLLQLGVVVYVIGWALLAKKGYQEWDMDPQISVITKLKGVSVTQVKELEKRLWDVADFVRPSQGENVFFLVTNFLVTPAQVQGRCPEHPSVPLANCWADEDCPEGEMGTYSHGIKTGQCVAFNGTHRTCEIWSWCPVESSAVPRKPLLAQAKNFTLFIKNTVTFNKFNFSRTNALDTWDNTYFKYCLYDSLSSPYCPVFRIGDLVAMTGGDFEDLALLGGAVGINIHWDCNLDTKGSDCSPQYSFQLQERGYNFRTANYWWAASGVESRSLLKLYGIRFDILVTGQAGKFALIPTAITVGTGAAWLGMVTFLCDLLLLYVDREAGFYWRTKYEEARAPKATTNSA

P2Y purinoceptor 6 = P2Y purinoceptor 6 (Homo sapiens, UniProt Q15077); experiment: The compound was evaluated for antagonist activity against phospholipase C coupled recombinant human P2Y purinoceptor 6 (P2Y6); format: functional; details: concentration not given here
Chain of P2Y purinoceptor 6 (Q15077 whole entry): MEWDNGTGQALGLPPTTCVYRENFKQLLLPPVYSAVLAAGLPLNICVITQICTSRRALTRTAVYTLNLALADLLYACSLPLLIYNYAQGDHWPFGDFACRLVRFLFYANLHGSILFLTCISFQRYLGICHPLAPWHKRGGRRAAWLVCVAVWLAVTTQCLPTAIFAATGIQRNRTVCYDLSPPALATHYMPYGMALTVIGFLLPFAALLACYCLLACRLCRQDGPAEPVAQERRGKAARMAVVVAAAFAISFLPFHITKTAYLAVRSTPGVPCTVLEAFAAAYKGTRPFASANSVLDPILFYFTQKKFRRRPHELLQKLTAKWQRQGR

P2X purinoceptor 4 [1] = target: T2, P2X purinoceptor 4 (Rattus norvegicus, UniProt P51577); experiment: Antagonist activity against recombinant rat P2X purinoceptor 4 (P2X4) at 3 uM, expressed in Xenopus oocytes; format: functional, cell-based, Oocyte
T2 sequence (P51577 whole entry): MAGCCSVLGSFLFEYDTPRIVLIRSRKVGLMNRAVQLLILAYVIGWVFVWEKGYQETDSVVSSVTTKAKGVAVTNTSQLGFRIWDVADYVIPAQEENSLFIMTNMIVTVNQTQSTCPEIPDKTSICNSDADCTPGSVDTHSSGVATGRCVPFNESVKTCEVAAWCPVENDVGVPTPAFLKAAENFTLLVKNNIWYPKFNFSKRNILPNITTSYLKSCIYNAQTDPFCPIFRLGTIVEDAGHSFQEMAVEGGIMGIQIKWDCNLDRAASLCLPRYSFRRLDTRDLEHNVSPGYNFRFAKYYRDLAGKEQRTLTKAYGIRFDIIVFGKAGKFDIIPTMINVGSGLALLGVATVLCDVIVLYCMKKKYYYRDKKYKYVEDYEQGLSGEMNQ

P2X purinoceptor 2 [2] = target: T3, P2X purinoceptor 2 (Rattus norvegicus, UniProt P49653); experiment: The compound was evaluated for antagonist activity against recombinant rat receptor P2X purinoceptor 2 (P2X2) at 30 uM, expressed in Xenopus oocytes; format: functional, cell-based, Oocyte
T3 sequence (P49653 whole entry): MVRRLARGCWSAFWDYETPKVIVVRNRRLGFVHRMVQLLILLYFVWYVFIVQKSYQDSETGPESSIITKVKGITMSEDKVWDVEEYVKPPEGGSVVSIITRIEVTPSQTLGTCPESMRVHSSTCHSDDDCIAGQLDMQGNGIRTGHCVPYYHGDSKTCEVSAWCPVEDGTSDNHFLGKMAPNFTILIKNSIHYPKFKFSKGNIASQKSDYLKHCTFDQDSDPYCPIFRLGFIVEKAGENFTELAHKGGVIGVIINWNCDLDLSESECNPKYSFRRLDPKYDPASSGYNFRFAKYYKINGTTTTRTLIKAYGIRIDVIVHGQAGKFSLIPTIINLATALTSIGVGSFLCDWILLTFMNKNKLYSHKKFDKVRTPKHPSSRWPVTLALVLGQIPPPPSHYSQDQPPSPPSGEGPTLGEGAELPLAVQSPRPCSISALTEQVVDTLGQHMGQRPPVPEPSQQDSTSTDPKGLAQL

P2Y purinoceptor 2 = P2Y purinoceptor 2 (Homo sapiens, UniProt P41231); experiment: Evaluated for agonist activity against phospholipase C coupled recombinant human P2Y purinoceptor 2 (P2Y2); format: functional
Chain of P2Y purinoceptor 2 (P41231 whole entry): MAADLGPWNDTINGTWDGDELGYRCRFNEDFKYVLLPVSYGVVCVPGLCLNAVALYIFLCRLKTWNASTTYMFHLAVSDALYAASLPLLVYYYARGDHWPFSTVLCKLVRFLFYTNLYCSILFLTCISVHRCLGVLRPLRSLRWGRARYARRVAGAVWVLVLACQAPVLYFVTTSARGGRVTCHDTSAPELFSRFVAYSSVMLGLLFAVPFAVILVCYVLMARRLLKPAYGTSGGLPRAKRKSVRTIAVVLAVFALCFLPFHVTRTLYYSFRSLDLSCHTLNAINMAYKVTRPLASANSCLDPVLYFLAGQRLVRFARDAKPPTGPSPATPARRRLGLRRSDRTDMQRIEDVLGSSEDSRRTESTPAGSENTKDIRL

P2X purinoceptor 1 [3] = target: T4, P2X purinoceptor 1 (Rattus norvegicus, UniProt P47824); experiment: The compound was evaluated for antagonist activity against recombinant rat P2X purinoceptor 1 (P2X1) at 1 uM, expressed in Xenopus oocytes; format: functional, cell-based, Oocyte
T4 sequence (P47824 whole entry): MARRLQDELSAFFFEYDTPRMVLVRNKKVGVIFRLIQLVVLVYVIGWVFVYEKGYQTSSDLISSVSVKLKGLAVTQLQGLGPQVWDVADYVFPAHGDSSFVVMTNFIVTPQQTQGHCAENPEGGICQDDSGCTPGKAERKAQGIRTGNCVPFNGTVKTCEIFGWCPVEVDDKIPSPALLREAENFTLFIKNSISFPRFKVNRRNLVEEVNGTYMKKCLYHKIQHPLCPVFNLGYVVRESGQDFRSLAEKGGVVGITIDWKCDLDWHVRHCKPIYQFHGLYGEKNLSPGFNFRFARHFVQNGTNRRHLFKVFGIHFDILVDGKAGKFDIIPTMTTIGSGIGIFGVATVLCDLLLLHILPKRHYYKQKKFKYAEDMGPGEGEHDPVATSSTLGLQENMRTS

P2Y purinoceptor 11 = target: T5, P2Y purinoceptor 11 (Homo sapiens, UniProt Q96G91); experiment: The compound was evaluated for antagonist activity against phospholipase C coupled human P2Y purinoceptor 11 (P2Y11); format: functional
T5 sequence (Q96G91 whole entry): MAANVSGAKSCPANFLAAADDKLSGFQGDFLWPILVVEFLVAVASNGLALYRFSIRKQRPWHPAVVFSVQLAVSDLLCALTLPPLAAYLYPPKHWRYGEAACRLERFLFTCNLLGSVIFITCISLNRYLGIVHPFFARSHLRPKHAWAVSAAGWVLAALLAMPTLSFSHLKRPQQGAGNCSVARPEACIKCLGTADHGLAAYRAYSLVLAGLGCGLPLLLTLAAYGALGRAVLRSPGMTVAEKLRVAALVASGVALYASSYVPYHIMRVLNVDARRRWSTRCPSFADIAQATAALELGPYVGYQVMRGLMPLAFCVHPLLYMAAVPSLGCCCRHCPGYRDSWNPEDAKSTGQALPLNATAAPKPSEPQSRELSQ

P2X purinoceptor 1 [4] = target: T4, P2X purinoceptor 1; experiment: Dissociation constant of the compound at P2X purinoceptor 1 (P2X1) from rat vas deferens was reported
P2X purinoceptor 1 [5] = target: T4, P2X purinoceptor 1; experiment: The compound was evaluated for antagonist activity against P2X purinoceptor 1 (P2X1) from rat vas deferens; format: functional
P2X purinoceptor 2 [6] = target: T3, P2X purinoceptor 2; experiment: The compound was evaluated for antagonist activity against recombinant rat P2X purinoceptor 2 (P2X2) at 30 uM; format: functional
P2X purinoceptor 4 [7] = target: T2, P2X purinoceptor 4; experiment: The compound was evaluated for antagonist activity against recombinant rat P2X purinoceptor 4 (P2X4) 3 uM; format: functional
P2X purinoceptor 1 [8] = target: T4, P2X purinoceptor 1; experiment: The compound was evaluated for antagonist activity against recombinant rat P2X purinoceptor 1 (P2X1); format: functional
P2X purinoceptor 3 = P2X purinoceptor 3 (Rattus norvegicus, UniProt P49654); experiment: The compound was evaluated for antagonist activity against recombinant rat P2X purinoceptor 3 (P2X3) at 3 uM, expressed in Xenopus oocytes; format: functional, cell-based, Oocyte
Chain of P2X purinoceptor 3 (P49654 whole entry): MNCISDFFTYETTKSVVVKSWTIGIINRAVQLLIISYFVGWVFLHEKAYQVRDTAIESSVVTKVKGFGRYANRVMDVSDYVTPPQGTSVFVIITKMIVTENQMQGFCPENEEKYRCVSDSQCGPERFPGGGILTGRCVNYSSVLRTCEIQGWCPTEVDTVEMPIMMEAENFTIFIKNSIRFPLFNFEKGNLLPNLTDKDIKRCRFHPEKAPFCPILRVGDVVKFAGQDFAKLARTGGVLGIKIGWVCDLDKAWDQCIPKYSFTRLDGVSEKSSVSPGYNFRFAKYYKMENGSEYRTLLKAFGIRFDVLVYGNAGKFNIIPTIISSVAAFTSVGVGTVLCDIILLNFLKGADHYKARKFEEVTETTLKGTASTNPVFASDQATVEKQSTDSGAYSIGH

[9] = target: P2Y purinoceptor 1 (Meleagris gallopavo); experiment: The compound was evaluated for antagonist activity against phospholipase C coupled P2Y purinoceptor 1 (P2Y1) of turkey erythrocytes

In the case of `Cc1ccc(C(=O)Nc2ccc(S(=O)(=O)O)c3cc(S(=O)(=O)O)cc(S(=O)(=O)O)c23)cc1NC(=O)c1cccc(NC(=O)Nc2cccc(C(=O)Nc3cc(C(=O)Nc4ccc(S(=O)(=O)O)c5cc(S(=O)(=O)O)cc(S(=O)(=O)O)c45)ccc3C)c2)c1` [SURAMIN], the EC50 (P2X purinoceptor 5) is reported as 4 µM, the EC50 (P2Y purinoceptor 4) is reported as > 100 µM and the EC50 (P2Y purinoceptor 12) is reported as 4 µM. For the same compound, the EC50 (P2Y purinoceptor 1) was > 10 µM, the EC50 (P2X purinoceptor 6) was > 100 µM and the inhibition (P2Y purinoceptor 6) was 27%. For the same compound, the EC50 (P2X purinoceptor 4 [1]) was > 100 µM, the EC50 (P2X purinoceptor 2 [2]) was 10.4 µM and the EC50 (P2Y purinoceptor 2) was 48 µM. It also gave an EC50 (P2X purinoceptor 1 [3]) of 1 µM and an EC50 (P2Y purinoceptor 11) of 16 µM.
`Nc1c(S(=O)(=O)O)cc(Nc2ccc(Nc3nc(Cl)nc(Nc4ccccc4S(=O)(=O)O)n3)c(S(=O)(=O)O)c2)c2c1C(=O)c1ccccc1C2=O` [CIBACRON BLUE 3GA] was tested, and the Kd (P2X purinoceptor 1 [4]) was 1.6 µM and the IC50 (P2X purinoceptor 1 [5]) was 9.6 µM.
In the case of `Cc1ncc2c(c1O)COP(=O)(O)OC2`, the EC50 (P2X purinoceptor 2 [6]) is reported as 100 µM, the IC50 (P2X purinoceptor 4 [7]) is reported as > 100 µM and the EC50 (P2X purinoceptor 1 [8]) is reported as 10.2 µM.
For `Cc1nc(/N=N/c2cc(CP(=O)(O)O)cc(CP(=O)(O)O)c2)c(COP(=O)(O)O)c(C=O)c1O`, the EC50 (P2X purinoceptor 3) was 0.022 µM and the EC50 (P2X purinoceptor 1 [3]) was 0.005 µM.
For `CNc1nc(Cl)nc2c1ncn2CCC(COP(=O)(O)O)COP(=O)(O)O`, the EC50 [9] was 0.84 µM.
